Measurements taken from patent US9029366B2, “Substituted bicyclic alkoxy pyrazole analogs as allosteric modulators of mGluR5 receptors” (Vanderbilt University, priority 2012, dated 2015).

Legend:
human mGluR5 = human mGluR5 (Homo sapiens, UniProt P41594); experiment: Cell-based functional Ca2+ mobilization assay (FDSS), potentiation of glutamate EC20 response, HEK293A cells transfected with human mGluR5a (H10H or H12H cell line); conditions: H10H cell line expressing recombinant human mGluR5, in presence of glutamate EC20, ** = compound is an antagonist; for EC50: read-out: pEC50 (converted); for Emax: HEK293-A, % of maximal glutamate response
Sequence of human mGluR5 (P41594 21-1180 isoform P41594-2 limits assumed): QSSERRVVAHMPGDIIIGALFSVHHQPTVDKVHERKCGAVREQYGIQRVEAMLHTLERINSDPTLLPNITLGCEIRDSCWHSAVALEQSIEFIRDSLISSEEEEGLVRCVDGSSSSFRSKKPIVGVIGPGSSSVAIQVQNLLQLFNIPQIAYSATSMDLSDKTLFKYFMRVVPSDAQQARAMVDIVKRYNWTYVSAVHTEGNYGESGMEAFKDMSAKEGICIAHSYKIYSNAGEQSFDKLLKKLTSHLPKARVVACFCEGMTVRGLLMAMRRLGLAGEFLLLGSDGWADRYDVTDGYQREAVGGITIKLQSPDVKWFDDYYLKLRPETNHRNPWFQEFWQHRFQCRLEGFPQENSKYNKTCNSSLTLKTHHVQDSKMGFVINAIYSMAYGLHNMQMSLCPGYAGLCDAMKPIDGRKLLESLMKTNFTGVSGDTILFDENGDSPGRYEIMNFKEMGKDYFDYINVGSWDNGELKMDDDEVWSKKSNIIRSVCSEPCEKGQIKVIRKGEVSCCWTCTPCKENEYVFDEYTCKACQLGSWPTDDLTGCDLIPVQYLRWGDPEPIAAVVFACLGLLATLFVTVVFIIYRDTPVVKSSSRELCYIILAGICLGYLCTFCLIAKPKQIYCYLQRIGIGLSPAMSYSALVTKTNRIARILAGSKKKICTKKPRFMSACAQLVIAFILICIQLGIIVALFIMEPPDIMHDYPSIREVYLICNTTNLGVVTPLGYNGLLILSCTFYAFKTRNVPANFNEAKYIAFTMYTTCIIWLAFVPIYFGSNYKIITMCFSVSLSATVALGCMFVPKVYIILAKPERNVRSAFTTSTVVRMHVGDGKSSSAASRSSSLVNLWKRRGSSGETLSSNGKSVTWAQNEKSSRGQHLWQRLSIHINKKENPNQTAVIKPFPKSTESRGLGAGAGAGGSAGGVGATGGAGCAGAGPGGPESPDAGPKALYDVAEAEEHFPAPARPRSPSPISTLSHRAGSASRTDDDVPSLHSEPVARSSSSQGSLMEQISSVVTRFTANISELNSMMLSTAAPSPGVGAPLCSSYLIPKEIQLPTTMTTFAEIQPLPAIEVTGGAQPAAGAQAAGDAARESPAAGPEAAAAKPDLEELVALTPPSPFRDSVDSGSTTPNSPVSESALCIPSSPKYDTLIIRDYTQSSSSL
Description: Human embryonic kidney (HEK) cells transfected with rat mGluR5 were plated in clear bottom assay plates for assay in a Functional Drug Screening System (FDSS). In the alternative assay, HEK cells transfected with human mGluR5 were plated for assay in the FDSS. In some cases the HEK cells transfected with human mGluR5 are the H10H cell line. Alternatively, the HEK cells transfected with human mGluR5 are the H12H cell line. […] The cells were loaded with a Ca^2+-sensitive fluorescent dye (e.g., Fluo-4), and the plates were washed and placed in the FDSS instrument. After establishment of a fluorescence baseline for about three seconds, the compounds of the present invention were added to the cells, and the response in cells was measured. Five minutes later, an mGluR5 agonist (e.g., glutamate, 3,5-dihydroxyphenylglycine, or quisqualate) was added to the cells, and the response of the cells was measured.
The above described assay can be operated in two modes. In the first mode, a range of concentrations of the present compounds were added to cells, followed by a single fixed concentration of agonist. If a compound acted as a potentiator, an EC50 value for potentiation and a maximum extent of potentiation by the compound at this concentration of agonist was determined by non-linear curve fitting. In the second mode, several fixed concentrations of the present compounds were added to various wells on a plate, followed by a range of concentrations of agonist for each concentration of present compound; the EC50 values for the agonist at each concentration of compound were determined by non-linear curve fitting. A decrease in the EC50 value of the agonist with increasing concentrations of the present compounds (a leftward shift of the agonist concentration-response curve) is an indication of the degree of mGluR5 potentiation at a given concentration of the present compound. An increase in the EC50 value of the agonist with increasing concentrations of the present compounds (a rightward shift of the agonist concentration-response curve) is an indication of the degree of mGluR5 antagonism at a given concentration of the present compound. The second mode also indicates whether the present compounds also affect the maximum response to mGluR5 to agonists.
Human mGluR5a cDNA in pCMV6-XL6 mammalian expression plasmid was purchased from OriGene Technologies, Inc. (catalogue number SC326357) and subcloned into pcDNA3.1(−). Human embryonic kidney (HEK)293A cells were then transfected with human mGluR5a pcDNA3.1(−) using LipofectAmine2000 (Invitrogen) and monoclones were selected and tested for functional response using a Ca^2+ mobilization assay. Monoclones were named for the species (“H” for human) plus the location on the plate (e.g. “10H”).
HEK cells transfected with the human mGluR5a receptor (H10H or H12H cell line) were plated at 15,000 cells/well in clear-bottomed poly-D-lysine-coated assay plates (BD Falcon) in glutamate-glutamine-free growth medium and incubated overnight at 37° C. and 5% CO2. Cell-lines used were either the H10H or H12H cell-lines expressing the human mGluR5 receptor. The following day, the growth medium was removed and the cells were washed with assay buffer containing 1× Hank's balanced salt solution (Invitrogen, Carlsbad, Calif.), 20 mM HEPES, 2.5 mM probenecid, pH 7.4 and left with 20 μL of this reagent. Following this step, the cells were loaded with calcium indicator dye, fluo-4 AM, to a final concentration of 2 μM and incubated for 40-45 min at 37° C. The dye solution was removed and replaced with assay buffer. Cell plates were held for 10-15 min at room temperature and were then loaded into the Functional Drug Screening System 6000 (FDSS 6000, Hamamatsu, Japan).
After establishment of a fluorescence baseline for about 3 seconds, the compounds of the present invention were added to the cells, and the response in cells was measured.

Row | EC50 (human mGluR5) | Emax (human mGluR5) | melting point | Structure (SMILES)
1 | > 30200 nM | 28% | 134 °C | Cc1nccc(C(=O)N2CCn3nc(OCc4ccccc4)cc3C2)n1 [Example B31]
2 | > 30200 nM | 24% | 117.6 °C | N#Cc1cc(F)cc(C(=O)N2CCn3nc(OCc4ccccc4)cc3C2)c1 [Example B6]
3 | 331 nM | 48% | 131 °C | O=C(c1ccccc1)N1CCn2nc(OCc3ccc(F)cc3)cc2C1 [Example B97]
4 | 1510 nM | 60% | 123 °C | O=C(c1ccc(F)cn1)N1CCn2nc(OCc3ccccc3)cc2C1 [Example B28]
5 | 251 nM | 46% | 120.8 °C | O=C(c1cccc(F)c1)N1CCn2nc(OCc3ccccc3)cc2C1 [Example B2, 2-(benzyloxy)-5-[(3-fluorophenyl)carbonyl]-4,5,6,7-tetrahydropyrazolo[1,5-a]pyrazine]
6 | > 30200 nM | 27% | 138.6 °C | COc1ccc(C(=O)N2CCn3nc(OCc4ccccc4)cc3C2)cn1 [Example B35]
7 | 3890 nM | 44% | 104.6 °C | Cc1ccc(C(=O)N2CCn3nc(OCc4ccccc4)cc3C2)cn1 [Example B33]
8 | > 30200 nM | 27% | 135.1 °C | O=C(c1ncccc1Cl)N1CCn2nc(OCc3ccccc3)cc2C1 [Example B29]
9 | > 10000 nM | 32% | 81.2 °C | Cc1cccc(C(=O)N2CCn3nc(OCc4ccccc4)cc3C2)n1 [Example B32]
10 |  | 58% | 135.3 °C | O=C(c1ccc(F)c(C(F)(F)F)c1)N1CCn2nc(OCc3ccccc3)cc2C1 [Example B109]
11 | 148 nM | 76% | 182.1 °C | O=C(c1ccc(F)cc1F)N1CCn2nc(OCc3ccccc3)cc2C1 [Example B102]
12 | 537 nM | 40% | 122.7 °C | O=C(c1cccc(F)c1F)N1CCn2nc(OCc3ccccc3)cc2C1 [Example B115]
13 | > 30200 nM | 27% | 166.4 °C | Cc1ncc(C(=O)N2CCn3nc(OCc4ccccc4)cc3C2)cn1 [Example B83]
14 | 562 nM | 49% |  | Cc1ccc(C(=O)N2CCn3nc(OCc4ccccc4)cc3C2)o1 [Example B56]
15 | 2000 nM | 48% |  | O=C(c1cncc(F)c1)N1CCn2nc(OCc3ccccc3)cc2C1 [Example B63]
16 | 141 nM | 55% |  | O=C(c1ccccc1)N1CCn2nc(OCc3ccccc3)cc2C1 [Example B50]
17 | > 30200 nM | 22% |  | O=C(c1cnc[nH]1)N1CCn2nc(OCc3ccccc3)cc2C1 [Example B58]
18 | 891 nM | 37% |  | O=C(c1ccnc(F)c1)N1CCn2nc(OCc3ccccc3)cc2C1 [Example B138]
19 | > 30200 nM | 19% |  | COc1ccc(C(=O)N2CCn3nc(OCc4ccccc4)cc3C2)cc1F [Example B45]

More lines, now with the values behind:

Row | Structure (SMILES) | EC50 (human mGluR5) | Emax (human mGluR5) | melting point
20 | O=C(c1cccc(Cl)c1)N1CCn2nc(OCc3ccc(F)cc3)cc2C1 [Example B111] | 380 nM | 49% | 125.2 °C
21 | COc1ccccc1COc1cc2n(n1)CCN(C(=O)c1ccc(F)cc1)C2 [Example B17] | > 10000 nM | 47% | 135.6 °C
22 | O=C(c1ccc(F)cc1)N1CCn2nc(OCc3ccccc3F)cc2C1 [Example B11] | 234 nM | 64% | 135.2 °C
23 | Cc1ccccc1COc1cc2n(n1)CCN(C(=O)c1ccc(F)cc1)C2 [Example B14] | 2000 nM | 51% | 99.3 °C
24 | O=C(c1ccc(F)cc1)N1CCn2nc(OCc3cccc(F)c3)cc2C1 [Example B10] | 89.1 nM | 62% | > 300 °C
25 | N#Cc1ccc(COc2cc3n(n2)CCN(C(=O)c2ccccc2)C3)cc1 [Example B110] | > 30200 nM | 30% | 155.6 °C
26 | O=C(c1cc(F)cc(F)c1)N1CCn2nc(OCc3ccccc3F)cc2C1 [Example B132] | 224 nM | 42% | 118.1 °C
27 | O=C(c1cccc(Cl)c1)N1CCn2nc(OCc3cccc(F)c3)cc2C1 [Example B98] | 112 nM | 66% | 117 °C
28 | O=C(c1ccc(F)cc1)N1CCCn2nc(OCc3ccncc3)cc2C1 [Example B89] | > 10000 nM | 40% | > 300 °C
29 | COc1cccc(COc2cc3n(n2)CCN(C(=O)c2ccc(F)cc2)C3)c1 [Example B16] | 1410 nM | 49% | 120.8 °C
30 | Cc1cccc(COc2cc3n(n2)CCN(C(=O)c2ccc(F)cc2)C3)c1 [Example B13] | 339 nM | 59% | 118.9 °C
31 | N#Cc1cccc(COc2cc3n(n2)CCN(C(=O)c2cc(F)cc(F)c2)C3)c1 [Example B119] | > 30200 nM | 15% | 124 °C
32 | N#Cc1cc(F)cc(C(=O)N2CCn3nc(OCc4cccc(F)c4)cc3C2)c1 [Example B101] | > 30200 nM | 32% | 118.2 °C
33 | Cc1cc(COc2cc3n(n2)CCN(C(=O)c2ccc(F)cc2)C3)ccn1 [Example B4, 5-[(4-fluorophenyl)carbonyl]-2-[(2-methylpyridin-4-yl)methoxy]-4,5,6,7-tetrahydropyrazolo[1,5-a]pyrazine] | > 10000 nM | 26% | 103.4 °C
34 | COc1cccc(C(=O)N2CCn3nc(OCc4ccccc4)cc3C2)n1 [Example B82] | > 30200 nM | 9% | 97.1 °C
35 | O=C(c1ccccc1F)N1CCn2nc(OCc3ccccc3F)cc2C1 [Example B134] | 141 nM | 71% | 132.4 °C
36 | O=C(c1ccc(F)cc1F)N1CCn2nc(OCc3ccccc3F)cc2C1 [Example B133] | 166 nM | 76% | 132.8 °C
37 | Cc1ccc(COc2cc3n(n2)CCN(C(=O)c2ccc(F)cc2)C3)cc1 [Example B12] | > 30200 nM | 28% | 156.9 °C
38 | O=C(c1ccc(F)cc1)N1CCn2nc(OCc3ccccn3)cc2C1 [Example B18] | > 30200 nM | 22% | 138.1 °C
39 | O=C(c1ccc(F)cc1)N1CCn2nc(OCc3cc[n+]([O-])cc3)cc2C1 [Example B135] | ≥ 10000 nM | 38% | 
40 | CC(C)(C)OCC(=O)N1CCn2nc(OCc3ccccc3)cc2C1 [Example B21] | 631 nM | 53% | 
41 | O=C(c1ccc(F)cc1)N1CCn2nc(OCc3ccc4nccn4c3)cc2C1 [Example B118] | > 30200 nM | 25% | 
42 | O=C(N1CCn2nc(OCc3ccccc3)cc2C1)C12C3C4C5C3C1C5C42 (stereo not drawn) [Example B125] | 245 nM | 73% | 
43 | O=C(c1ccc(F)cc1)N1CCn2nc(OCc3ccnc(C(F)(F)F)c3)cc2C1 [Example B123] | ≥ 10000 nM | 30% | 
44 | Cn1c(Cl)ccc1C(=O)N1CCCn2nc(OCc3ccccc3)cc2C1 [Example B90] | 47.9 nM | 74% | 
45 | O=C(CC1CCCC1)N1CCn2nc(OCc3ccccc3)cc2C1 [Example B67] | 479 nM | 52% | 
46 | O=C(c1ccc(F)cc1)N1CCn2nc(OCc3ncccn3)cc2C1 [Example B117] | > 30200 nM | 30% | 
